Laboratory results as given in PMC7297381, “Potent, specific MEPicides for treatment of zoonotic staphylococci” (PLoS Pathogens, 2020).
Read-outs that look alike come from different tables or passages of the source.

Columns and labels:
S. pseudintermedius = assay: Growth inhibition assay of Staphylococcus species (OD600, 20 h); conditions: read-out: S. pseudintermedius IC50
Experimental: (§1) Overnight cultures were diluted 1:200 in LB media and grown at 37°C until the mid-logarithmic phase (OD600 = 0.5–0.8). Cultures were diluted in a 96-well plate to 1 x 10^5 in 150 μL LB media and treated with inhibitors at concentrations ranging from 2 nM to 100 μM. Bacteria were grown at 37°C for 20 h with cyclic shaking at 700 rpm in a FLUOstar Omega microplate reader (BMG Labtech). Growth was assessed over 20 h by measuring the OD600 at 20 min increments. The half-maximal inhibitory concentration (IC50) values were determined during logarithmic growth using GraphPad Prism software. All experiments were performed at least in triplicate and data reported represent the mean ± SEM.

S. schleiferi [1] = assay: as above; conditions: read-out: S. schleiferi IC50
Experimental: as §1

S. schleiferi DXR enzyme = S. schleiferi DXR enzyme (Staphylococcus schleiferi, UniProt A0ABF7SXB4); assay: S. schleiferi DXR enzyme activity and inhibition (NADPH oxidation at 340 nm); type: biochemical
Sequence of S. schleiferi DXR enzyme (A0ABF7SXB4 entry or part of it): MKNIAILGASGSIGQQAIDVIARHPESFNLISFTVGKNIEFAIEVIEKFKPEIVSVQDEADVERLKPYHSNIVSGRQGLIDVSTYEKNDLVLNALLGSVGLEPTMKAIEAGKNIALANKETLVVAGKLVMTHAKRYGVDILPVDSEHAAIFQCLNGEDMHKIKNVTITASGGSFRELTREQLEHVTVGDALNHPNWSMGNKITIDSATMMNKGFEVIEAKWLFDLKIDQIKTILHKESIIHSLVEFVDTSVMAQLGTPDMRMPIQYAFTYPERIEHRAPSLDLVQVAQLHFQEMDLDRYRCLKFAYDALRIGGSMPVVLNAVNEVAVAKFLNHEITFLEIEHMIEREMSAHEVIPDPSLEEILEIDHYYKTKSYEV
Experimental: . The sequence was confirmed by Sanger sequencing and the plasmid was transformed into E. coli BL21(DE3) pLysS (Life Technologies). Gene expression was induced for 2 h with 1 mM isopropyl-β-D-thiogalactoside (IPTG) and cells were harvested by centrifugation at 4274 x g for 10 min at 4°C. The cell pellet was lysed by sonication in lysis buffer containing 25 mM Tris HCl (pH 7.5), 100 mM NaCl, 20 mM imidazole, 10% glycerol, 1 mM MgCl2, 1 mM dithiothreitol (DTT), 1 mg/mL lysozyme, 75 U benzonase and 1 Complete Mini EDTA-free protease inhibitor tablet (Roche Applied Science). The hexahistidine-tagged DXR protein was affinity purified from soluble lysate via nickel agarose beads (Gold Biotechnology). Bound protein was eluted in 300 mM imidazole, 25 mM Tris HCl (pH 7.5), 1 mM MgCl2 and 100 mM NaCl. Purified protein was dialyzed in buffer containing 10% glycerol without imidazole prior to analysis. The enzyme was frozen in liquid nitrogen and stored permanently at -80°C.
Oxidation of NADPH to NADP^+ as a result of substrate turnover was monitored at 340 nm in a POLARstar Omega microplate reader (BMG Labtech)[73]. […] Reactions were initiated by the addition of DOXP after 15 min incubation of the reaction mixture without DOXP at 37°C. Absorption at 340 nm was measured continuously for up to 45 min. For Km [DOXP] determination, DOXP concentrations between 0 and 2 mM were tested at 0.5 mM NADPH. The linear range of enzyme activity was determined by varying the DXR concentration at 1 mM DOXP and 1 mM NADPH. IC50 assays were performed using the standard reaction conditions with the respective amount of DXR inhibitor added to obtain the given final concentrations. Data points from at least three independent replicates were analyzed by nonlinear regression using GraphPad Prism software. Slopes of changing absorbance values were converted to (μM DOXP)(mg enzyme)^-1 s ^-1 using a NADPH standard curve (data not shown). For the determination of the inhibitory constant Ki [FSM] of DXR, enzyme activity over a range of DOXP substrate concentrations between 0 and 2 mM was measured for FSM between 0 mM to 4 mM. Data points from at least three independent replicates were analyzed as described above.

S. aureus = assay: Growth inhibition assay of Staphylococcus species (OD600, 20 h); conditions: Staphylococcus aureus, read-out: S. aureus IC50
Experimental: as §1

S. schleiferi [2] = assay: MIC by microtiter broth dilution, wild-type and FSM-resistant strains; conditions: strains 3408, 4494, 7376, 8400
Experimental: Minimum Inhibitory Concentration (MIC) assays were conducted by microtiter broth dilution in clear 96-well plates[78]. MEPicides were serially diluted in duplicate at concentrations ranging from 1.5 mM– 19.5 nM in 75 μL of LB broth. Bacteria cultured without drug were used as a positive control for growth. The plates were inoculated with 75 μL bacteria diluted to 1 x 10^5 CFU/mL in LB. Plates were incubated for 18–20 h while shaking at 200 RPM at 37°C. The plates were then visually inspected, and the MIC value was defined as the lowest concentration of MEPicide that prevented visual growth.

HepG2 cells = test system: HepG2 cells; set-up: method as in PMID 28827774, PMID 30192536; conditions: previous work ref [42], [53]; read-out: IC50 against HepG2 cells; cited from earlier work

CC(=O)N(O)C/C=C/P(=O)(O)O [Compound 1]
IC50 (S. pseudintermedius): 54.5 ± 1.14 µM | IC50 (S. schleiferi [1]): 55.5 ± 2.41 µM | IC50 (S. schleiferi DXR enzyme): 3.31 ± 1.02 µM | IC50 (S. aureus): > 100 µM

O=CN(O)C/C=C/P(=O)(O)O [Compound 3]
IC50 (S. pseudintermedius): 4.31 ± 0.51 µM | sensitivity of FSM^R glpT mutant S. schleiferi strains (MIC fold change vs WT) (S. schleiferi [2]): cross-resistant | IC50 (S. schleiferi [1]): 4.17 ± 0.47 µM | IC50 (S. schleiferi DXR enzyme): 0.41 ± 0.11 µM | IC50 (HepG2 cells): > 50 µM | IC50 (S. aureus): > 100 µM

CC(C)(C)C(=O)OCOP(=O)(/C=C/CN(O)C=O)OCOC(=O)C(C)(C)C [Compound 4]
IC50 (S. pseudintermedius): 0.21 ± 0.04 µM | sensitivity of FSM^R glpT mutant S. schleiferi strains (MIC fold change vs WT) (S. schleiferi [2]): remain sensitive | IC50 (S. schleiferi [1]): 0.03 µM | inhibition of purified recombinant S. schleiferi DXR in vitro (S. schleiferi DXR enzyme; prodrug, uncleaved): poorly inhibit | IC50 (S. schleiferi DXR enzyme; purified recombinant enzyme, mean ± SEM, read-out: S. schleiferi DXR enzyme IC50): 12.6 ± 1.98 µM | IC50 (HepG2 cells): > 50 µM | IC50 (S. aureus): > 90 µM
